Assay [1] deals with Acyrthosiphon pisum aphids. Kind of assay: Aphid developmental stage monitoring. The assay is classed as in vivo. The procedure: In addition, the developmental stage (1st, 2nd, 3rd, 4th, 5th instar) was determined daily throughout the experiment. Once an aphid reached the 4th instar stage, they were given their own artificial feeding system in a deep petri dish so that fecundity could be monitored once they reached adulthood.
Each treatment group received approximately the same number of individuals from each of the collection plant. For each treatment, 20 aphids were placed onto each leaf. Aphids were monitored daily for survival and dead aphids were removed when they were discovered. In addition, the developmental stage (1st, 2nd, 3rd, 4th, 5th instar, and 5R, representing a reproducing 5th instar) was determined daily throughout the experiment. Pictures of aphids were taken throughout the experiment to evaluate size differences between treatment groups.
(Vroma vicia faba from Johnny's Selected Seeds) in a climate-controlled incubator (16 h light/8 h dark photoperiod; 60±5% RH; 25±2° C.). Prior to being used for aphid rearing, fava bean plants were grown in potting soil at 24° C. with 16 h of light and 8 h of darkness. To limit maternal effects or health differences between plants, 5-10 adults from different plants were distributed among 10 two-week-old plants, and allowed to multiply to high density for 5-7 days. […] Aphids were monitored daily for survival and dead aphids were removed from the deep petri dish when they were discovered. In addition, the developmental stage (1st, 2nd, 3rd, 4th, 5th and 5R (5th that has reproduced) instar) was determined daily throughout the experiment.
In addition, the developmental stage (1st, 2nd, 3rd, 4th, 5th, and 5R (5th that has reproduced) instar) was determined daily throughout the experiment.
In addition, the developmental stage (1st, 2nd, 3rd, 4th, 5th, and 5R (5th instar aphids that are reproducing) instar) was determined daily throughout the experiment.
In addition, the developmental stage (1st, 2nd, 3rd, 4th, and 5th instar) was determined daily throughout the experiment.
In addition, the developmental stage (1st, 2nd, 3rd, 4th, 5th, and 5R (5th that has reproduced) instar) was determined daily throughout the experiment. Once an aphid reached the 4th instar stage, they were given their own artificial feeding system in a deep petri dish so that fecundity could be monitored once they reached adulthood.
For each treatment, 30 aphids were placed onto each leaf in triplicate. […] Aphids were monitored daily for survival and dead aphids were removed from the deep petri dish when they were discovered. In addition, the developmental stage (1st, 2nd, 3rd, 4th, 5th, and 5R (5th instar aphids that are reproducing) instar) was determined daily throughout the experiment. […]

The subject of another assay is Buchnera. Kind of assay: qPCR of Buchnera/aphid DNA copy numbers (symbiont titer). It counts as in vivo, Buchnera aphidicola. To be noted: 10 or 100 uM pantothenol, through plants; 8 days. The procedure: After 7 days of treatment, DNA was extracted from multiple aphids from each treatment group. Briefly, the aphid body surface was sterilized by dipping the aphid into a 6% bleach solution for approximately 5 seconds. Aphids were then rinsed in sterile water and DNA was extracted from each individual aphid using a DNA extraction kit (Qiagen, DNeasy kit) according to manufacturer's instructions. DNA concentration was measured using a nanodrop nucleic acid quantification, and Buchnera and aphid DNA copy numbers were measured by qPCR.
After 6 days of treatment, DNA was extracted from multiple aphids from each treatment group and qPCR for quantifying Buchnera levels was done as described in the previous Example.
After 8 days of treatment, DNA was extracted from multiple aphids from each treatment group. Briefly, the aphid body surface was sterilized by dipping the aphid into a 6% bleach solution for approximately 5 seconds. Aphids were then rinsed in sterile water and DNA was extracted from each individual aphid using a DNA extraction kit (Qiagen, DNeasy kit) according to manufacturer's instructions. DNA concentration was measured using a nanodrop nucleic acid quantification, and Buchnera and aphid DNA copy numbers were measured by qPCR.
After 8 days of treatment, DNA was extracted from the remaining aphids in each treatment group. Briefly, the aphid body surface was sterilized by dipping the aphid into a 6% bleach solution for approximately 5 seconds. Aphids were then rinsed in sterile water and DNA was extracted from each individual aphid using a DNA extraction kit (Qiagen, DNeasy kit) according to manufacturer's instructions. DNA concentration was measured using a nanodrop nucleic acid quantification, and Buchnera and aphid DNA copy numbers were measured by qPCR.
(§1) Briefly, the aphid body surface was sterilized by dipping the aphid into a 6% bleach solution for approximately 5 seconds. Aphids were then rinsed in sterile water and DNA was extracted from each individual aphid using a DNA extraction kit (Qiagen, DNeasy kit) according to manufacturer's instructions. DNA concentration was measured using a nanodrop nucleic acid quantification, and Buchnera and aphid DNA copy numbers were measured by qPCR.
as §1
After 3 days of treatment, DNA was extracted from the remaining living aphids from each treatment group. Briefly, the aphid body surface was sterilized by dipping the aphid into a 6% bleach solution for approximately 5 seconds. Aphids were then rinsed in sterile water and DNA was extracted from each individual aphid using a DNA extraction kit (Qiagen, DNeasy kit) according to manufacturer's instructions. DNA concentration was measured using a nanodrop nucleic acid quantification, and Buchnera and aphid DNA copy numbers were measured by qPCR.
After 5 days of treatment, DNA was extracted from the remaining aphids in each treatment group. Briefly, the aphid body surface was sterilized by dipping the aphid into a 6% bleach solution for approximately 5 seconds. Aphids were then rinsed in sterile water and DNA was extracted from each individual aphid using a DNA extraction kit (Qiagen, DNeasy kit) according to manufacturer's instructions. DNA concentration was measured using a nanodrop nucleic acid quantification, and Buchnera and aphid DNA copy numbers were measured by qPCR.
At 5 days post-treatment, DNA was extracted from several aphids in each treatment group. Briefly, the aphid body surface was sterilized by dipping the aphid into a 6% bleach solution for approximately 5 seconds.
Background: Real-time PCR tracks product formation cycle by cycle.

Each structure is given as a SMILES string. “Also recorded” adds a separate entry of the source.

`CC(C)(CO)[C@@H](O)C(=O)NCCCO` [pantothenol]: the Aphid development result is “delayed aphid development; also recorded: Development was delayed” in assay [1] (eNASCO 1st and 2nd instar, 10 or 100 uM pantothenol in artificial diet without essential amino acids, through plants); “did not affect aphid development; also recorded: matured at similar rates up to two days post-treatment” in assay [1] (eNASCO first instar, leaf coating, 100 μl of 10 uM pantothenol in 0.025% Silwet L-77). Moreover, the “Buchnera/aphid DNA copies” value in the assay on Buchnera was “did not affect endosymbiotic Buchnera; also recorded: high ratios of Buchnera/aphid DNA copies”.

These data come from patent US20190387748A1, “COMPOSITIONS AND RELATED METHODS FOR AGRICULTURE” (priority 2017, published 2019).
